Source: US9801374B2, “Active compound combinations comprising carboxamide derivatives” (BAYER CROPSCIENCE AG, priority 2012, dated 2017)

Columns and labels:
[1] = test system: Leptosphaeria nodorum; test: Leptosphaeria nodorum test (wheat) / preventive; type: in vivo, Leptosphaeria nodorum on wheat; details: evaluated 8 days after inoculation
Protocol: (§1) • Solvent: 49 parts by weight of N,N-dimethylacetamide • Emulsifier: 1 part by weight of alkylaryl polyglycol ether
(§2) To produce a suitable preparation of active compound, 1 part by weight of active compound or active compound combination is mixed with the stated amounts of solvent and emulsifier, and the concentrate is diluted with water to the desired concentration.
(§3) To test for preventive activity, young plants are sprayed with the preparation of active compound or active compound combination at the stated rate of application.
After the spray coating has been dried, the plants are sprayed with a spore suspension of Leptosphaeria nodorum. The plants remain for 48 hours in an incubation cabinet at approximately 20° C. and a relative atmospheric humidity of approximately 100%.
The plants are placed in the greenhouse at a temperature of approximately 22° C. and a relative atmospheric humidity of approximately 80%.
The test is evaluated 8 days after the inoculation. 0% means an efficacy which corresponds to that of the untreated control, while an efficacy of 100% means that no disease is observed.

[2] = test system: Blumeria graminis f.sp. hordei; test: Blumeria test (barley) / preventive; type: in vivo, Blumeria graminis f.sp. hordei on barley; details: evaluated 7 days after inoculation
Protocol: as §1, §2, §3
After the spray coating has been dried, the plants are dusted with spores of Blumeria graminis f.sp. hordei.
The plants are placed in the greenhouse at a temperature of approximately 18° C. and a relative atmospheric humidity of approximately 80% to promote the development of mildew pustules.
The test is evaluated 7 days after the inoculation. 0% means an efficacy which corresponds to that of the untreated control, while an efficacy of 100% means that no disease is observed.

| SMILES | Efficacy in % found ([1]; 25 ppm a.i.) | Efficacy in % found ([2]; 5 ppm a.i.) | other results |
| --- | --- | --- | --- |
| CCOC(=O)C1=NN(c2ccc(Cl)cc2Cl)C(C)(C(=O)OCC)C1 [(D-23), mefenpyr-diethyl] | 17% |  |  |
| CP(=O)(O)CCC(N)C(=O)O (stereo not shown) [(B-13.3), glufosinate-ammonium] |  | 0% |  |
| COc1ccccc1C(=O)NS(=O)(=O)c1ccc(C(=O)NC2CC2)cc1 [(D-62), N-{[4-(cyclopropylcarbamoyl)phenyl]-sulfonyl}-2-methoxybenzamide] | 0% |  |  |
| O=C(O)CNCP(=O)(O)O [(B-14.1), glyphosate] |  | 11% |  |
| CCOC(=O)C1=NOC(c2ccccc2)(c2ccccc2)C1 [(D-19), isoxadifen-ethylen] | 17% |  |  |
| CC(C)c1ccc(Cl)cc1CN(C(=O)c1c(C(F)F)nn(C)c1F)C1CC1 [compound A5, N-(5-chloro-2-isopropylbenzyl)-N-cyclopropyl-3-(difluoromethyl)-5-fluoro-1-methyl-1H-pyrazole-4-carboxamide] |  |  | Efficacy in % found ([1]; 31 ppm a.i.): 50%; Efficacy in % found ([2]; 62.5 ppm a.i.): 56% |
